Results: patent US20090253644A1, “Radiosensitizer” (TOYO SUISAN KAISHA, LTD., priority 2004, published 2009)

Columns and labels:
[1] = tested on: angiogenesis (tube formation); assay: Assay by angiogenesis kit (KZ-1000), tube formation; format: cell-based
Method: The anti-angiogenic effect obtained by combined use of 20 μM of α-SQMG C18:0 administration and 4 Gy of ^60Co γ-ray irradiation was investigated using an angiogenesis kit (“angiogenesis kit KZ-1000” of Kurabo Industries Ltd.).
A drug named Suramin is the known substance as a drug suppressing angiogenesis, and it is known that its action is to inhibit a growth factor receptor of a vascular endothelial cell. In the present Example, Suramin was used as a positive control at 50 μM.
As described above, the “theoretical additive point of combined use” is calculated by multiplication, and the theoretical value is compared with an actually measured value.

[2] = tested on: Bovine aortic endothelial cells (BAEC); assay: Colony assay on vascular endothelial cells with 60Co γ-ray irradiation; format: cell-based; set-up: key to actually measured SF value of combined use group / actually measured SF value of combined use: SF = colonies/seeded cells×(PE/100); PE = control colony formation rate; details: for SF (cell surviving fraction), administration alone / synergistic effect of combined use with radiation on suppression of proliferation of vascular endothelial cells: 10 μM; for SF (cell surviving fraction), administration alone: 24 hours, no irradiation; for synergistic effect of combined use with radiation on suppression of proliferation of vascular endothelial cells: 4 Gy and/or 6 Gy
Method: Bovine aortic endothelial cells (BAEC) were appropriately seeded on a petri dish, and adhesion of cells was confirmed after 2 to 3 hours. In a group of α-SQMG C18:0 administration alone and a combined use group, the cells were treated with 10 μM of α-SQMG C18:0. After 24 hours, a medium was exchanged in all test groups, and 4 Gy of ^60Co γ-ray was irradiated in a group of irradiation alone and a combined use group. After the cells were cultured in a CO2 incubator at 37° C. for 10 to 12 days, formed colonies were fixed with formalin, and stained with a crystal violet staining solution. On each plate, the number of colonies consisting of about 50 or more cells was counted, and cell surviving fraction (SF) was obtained according to the following equation.
SF (cell surviving fraction)=number of colonies/number of seeded cells×(PE/100)
Herein, PE (plating efficiency) represents a colony formation rate (%) on a plate of a control.
An experiment was performed three times, and an average of them was calculated.
The same experiment as that of Experimental Example 2-1 was performed except that a radiation dose 6 Gy was irradiated in place of 4 Gy used in Experimental Example 2-1. […]

[3] = 4 Gy 60Co γ-ray + α-SQMG C18:0 20 μM or Suramin 50 μM

| Compound | tube formation rate, Actually measured value, combined use [1, 3] | tube formation rate, Theoretical value (theoretical additive point of combined use) [1, 3] | tube formation rate, use alone ([1]; α-SQMG C18:0 20 μM, Suramin 50 μM, no irradiation) | actually measured SF value of combined use group ([2]; 10 μM + 4 Gy 60Co γ-ray) | theoretical additive point of combined use (SF) ([2]; 10 μM + 4 Gy 60Co γ-ray) | SF (cell surviving fraction), administration alone [2] | actually measured SF value of combined use group ([2]; 10 μM + 6 Gy 60Co γ-ray) | theoretical additive point of combined use (SF) ([2]; 10 μM + 6 Gy 60Co γ-ray) | synergistic effect of combined use with radiation on suppression of proliferation of vascular endothelial cells [2] |
| --- | --- | --- | --- | --- | --- | --- | --- | --- | --- |
| Cc1ccc(C(=O)Nc2ccc(S(=O)(=O)O)c3cc(S(=O)(=O)O)cc(S(=O)(=O)O)c23)cc1NC(=O)c1cccc(NC(=O)Nc2cccc(C(=O)Nc3cc(C(=O)Nc4ccc(S(=O)(=O)O)c5cc(S(=O)(=O)O)cc(S(=O)(=O)O)c45)ccc3C)c2)c1 [Suramin, reference compound] | 0.232 | 0.219 | 0.3386 | – | – | – | – | – | – |
| CCCCCCCCCCCCCCCCCC(=O)OCC(CO[C@H]1O[C@H](CS(=O)(=O)[O-])[C@@H](O)[C@H](O)[C@H]1O)OC(=O)CCCCCCCCCCCCCCCCC.[Na+] (stereo partly drawn) [α-SQDG C18:0, 3-O-(6-deoxy-6-sulfo-α-D-glucopyranosyl)-1,2-di-O-stearoyl-glycerol sodium salt] | – | – | – | 0.0882 | 0.1765 | 0.9216 | – | – | – |
| CCCCCCCCCCCCCC(=O)OCC(O)CO[C@H]1O[C@H](CS(=O)(=O)[O-])[C@@H](O)[C@H](O)[C@H]1O.[Na+] (stereo partly drawn) [α-SQMG C14:0, 3-O-(6-deoxy-6-sulfo-α-D-glucopyranosyl)-1-O-myristoyl-glycerol sodium salt] | – | – | – | – | – | 1.0605 | 0.0109 | 0.0715 | considerably great synergistic effect |
| CCCCCCCCCCCCCCCC(=O)OCC(O)CO[C@H]1O[C@H](CS(=O)(=O)[O-])[C@@H](O)[C@H](O)[C@H]1O.[Na+] (stereo partly drawn) [α-SQMG C16:0, 3-O-(6-deoxy-6-sulfo-α-D-glucopyranosyl)-1-O-palmitoyl-glycerol sodium salt] | – | – | – | – | – | 0.9553 | 0.0233 | 0.0644 | considerably great synergistic effect |
| CCCCCCCC/C=C\CCCCCCCC(=O)OCC(O)CO[C@H]1O[C@H](CS(=O)(=O)[O-])[C@@H](O)[C@H](O)[C@H]1O.[Na+] (stereo partly drawn) [α-SQMG C18:1, 3-O-(6-deoxy-6-sulfo-α-D-glucopyranosyl)-1-O-oleoyl-glycerol sodium salt] | – | – | – | 0.0843 | 0.1990 | 1.0392 | – | – | – |
| CCCCCCCCCCCCCCCCCC(=O)OCC(O)CO[C@H]1O[C@H](CS(=O)(=O)[O-])[C@@H](O)[C@H](O)[C@@H]1O.[Na+] (stereo partly drawn) [α-SRMG C18:0, 3-O-(6-deoxy-6-sulfo-α-D-mannopyranosyl)-1-O-stearoyl-glycerol sodium salt] | – | – | – | 0.0784 | 0.1677 | 0.8758 | – | – | – |
| CCCCCCCCCCCCCCCCCC(=O)OCC(CO[C@@H]1O[C@H](CS(=O)(=O)[O-])[C@@H](O)[C@H](O)[C@H]1O)OC(=O)CCCCCCCCCCCCCCCCC.[Na+] (stereo partly drawn) [β-SQDG C18:0, 3-O-(6-deoxy-6-sulfo-β-D-glucopyranosyl)-1,2-di-O-stearoyl-glycerol sodium salt] | – | – | – | 0.0908 | 0.1377 | 0.7190 | – | – | – |
| CCCCCCCCCCCCCCCCCC(=O)OCC(O)CO[C@@H]1O[C@H](CS(=O)(=O)[O-])[C@@H](O)[C@H](O)[C@H]1O.[Na+] (stereo partly drawn) [β-SQMG C18:0, 3-O-(6-deoxy-6-sulfo-β-D-glucopyranosyl)-1-O-stearoyl-glycerol sodium salt] | – | – | – | 0.0922 | 0.1640 | 0.8562 | – | – | – |
